Reference: patent US6949522B2, “β-2′- or 3′-halonucleosides” (Pharmasset, Inc., priority 2001, dated 2005)
Each block holds one compound with its values, some of them ahead of it.

Legend:
[1] = biological target: T1, adenosine deaminase (EC 3.5.4.4) (Bos taurus, UniProt P56658); assay: in vitro; settings: bovine, pH 7.4
T1 sequence (P56658 1-363): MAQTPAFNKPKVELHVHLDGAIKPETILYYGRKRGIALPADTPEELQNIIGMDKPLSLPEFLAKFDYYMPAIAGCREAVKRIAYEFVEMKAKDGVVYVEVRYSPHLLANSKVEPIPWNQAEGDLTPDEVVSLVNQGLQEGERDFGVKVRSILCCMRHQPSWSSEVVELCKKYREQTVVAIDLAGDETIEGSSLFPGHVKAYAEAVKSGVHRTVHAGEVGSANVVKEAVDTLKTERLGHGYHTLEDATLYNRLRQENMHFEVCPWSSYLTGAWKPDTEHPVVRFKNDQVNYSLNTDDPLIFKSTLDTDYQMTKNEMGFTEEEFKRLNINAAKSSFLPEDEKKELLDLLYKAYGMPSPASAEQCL
Protocol: Assays were performed at 25° C. in phosphate buffer solution (pH 7.4) with substrate concentrations in the range of 15-100 μM and with 0.15 unit of adenosine deaminase (EC.3.5.4.4. from calf intestinal mucosa). The assays were monitored with a UV spectrometer at 265 nm. Initially, the qualitative assays were performed with D-β-2′-F-4′-S-d4A 24 (200 μM) in the presence of 0.24 unit of adenosine deaminase for 120 minutes to determine whether it is a substrate of this enzyme. The concentration (ct) of each substrate at a certain time (t) was calculated from the absorbance (At) at that time (t), where it was assumed that the total change of absorbance (A0−A∞) was directly related to the disappearance of the substrate.^35 Initial hydrolysis rates for each substrate concentration were measured manually through graphical curve fitting of the concentration versus time data for reaction of each substrate. From Lineweaver-Burke plot of these initial rates, Vmax (maximum velocity) and KM (Michaelis constant) were obtained for each substrate and kcat was also calculated with 0.15 unit of the enzyme (M.W. 33,000) in 2 mL of buffer solution.

HBV = settings: read-out: inhibition of HBV EC50; cited from earlier work
[2] = biological target: T2, adenosine deaminase (EC.3.5.4.4. from calf intestinal mucosa) (Bos taurus, UniProt P56658); set-up: adenosine deaminase (EC.3.5.4.4. from calf intestinal mucosa); from tissue; host or cells: calf intestinal mucosa; settings: literature value (ref. 28); cited from earlier work
T2 sequence (P56658 1-363): T1 sequence (P56658 1-363)

half-life at 20 μM [1]: 30 s
SMILES: Nc1ncnc2c1ncn2[C@@H]1O[C@H](CO)[C@@H](O)[C@H]1O [Adenosine, reference compound]

SMILES: Nc1nc(=O)n([C@@H]2CS[C@H](CO)O2)cc1F [(−)-FTC, β-2′,3′-dideoxy-5-fluoro-3′-thiacytidine]
EC50 (HBV): 240 nM

SMILES: Nc1ncnc2c1ncn2[C@@H]1O[C@H](CO)C=C1F [D-2′-F-d4A]
Km [2]: 23 µM
